# Test results taken from patent US9238632B2, “3-cyanoanilinoalkylarylpiperazine derivative and use thereof in preparing drugs” (NHWA Pharma. Corporation, priority 2012, dated 2016).
# Structures can show the parent of a compound that is named as a salt.
# Assays:
# [1] = test system: rat formalin induced pain model; experiment: Rat formalin induced pain model (leg-raising times); type: in vivo, SD rats; details: 100 mg/kg intragastric, formalin 1 h later; Mean ± SD, n=10
# Excerpt: Rat formalin induced pain model is used to test in vivo analgesic effect of hydrochloride of compound III-10.
# Rat formalin induced pain model is established by Dubuisson and Dennis in 1977. It can simulate some characteristics of human pains after damages, and its persistent tension pain is similar to common clinical chronic pains. Its experimental results have excellent repeatability, and it is considered to be universally accepted pain model which is more reliable than short-term mechanical or thermal stimulation models. It has been generally used in investigation and determination of pain mechanism, pain physiology and pharmacology, screening of the analgesic effects of drugs and evaluation of analgesic drugs.
# Test compounds are prepared to relevant doses with 0.5% CMC-Na before use.
# Formaldehyde solution: batch number HN20041109, HuaDong reagent industrial company. In experiment, it is diluted to 5% formaldehyde solution with 0.9% sodium chloride injection.
# 90 SD rats of weight (240-350 g), half female and half male, are fed for I week to adapt the environment, with 5 in each cage during feeding, the rats are fed under standard condition during experiments with free access to water and food.
# 90 SD rats of weight 240-350 g are randomly divided into 9 groups which are negative control group, model group, gabapentin group, high, median and low dosage group of each compound respectively, with 10 rats in each group, half female and half male. Relevant test compounds are given by intragastric administration, and 5% formalin (50 ul) is subcutaneously injected at the left rear foot in 1 h to model, formation of pichu indicates a successful modeling. 0.5% (weight percentage) CMC-Na is given by intragastric administration in negative control group, and normal saline (50 ul) is subcutaneously injected at the bottom of right rear foot in 1 h. After modeling, the leg-raising times in 1-2 minutes and 5-6 minutes are observed. The time period 10-60 minutes are divided into 5 minutes intervals, and the leg-raising times of the first minute of each interval (10-11, 15-16, 20-21, 25-26, 30-31, 35-36, 40-41, 45-46, 50-51, 55-56, 60-61) are observed.
# Measuring index is expressed as mean±standard deviation (Mean±SD), comparison is analyzed with One-way ANOVA.
# [2] = target: T1, 5-HT1A receptor (Rattus norvegicus, UniProt P19327); experiment: In vitro competitive binding test to 5-HT1A receptor ([3H]-8-OH-DPAT, rat cerebral cortex membranes); details: 10 μmol/L compound; hydrochloride salts; rat cerebral cortex membrane; unit (I %); read-out: 5-HT1A affinity [3H]-8-OH-DPAT (inhibition rate of radioligand binding)
# T1 construct: The supernatant is discarded and the precipitate (membrane receptor) is stocked; from tissue; host or cells: SD rat cerebral cortex membranes
# T1 sequence (P19327 1-422): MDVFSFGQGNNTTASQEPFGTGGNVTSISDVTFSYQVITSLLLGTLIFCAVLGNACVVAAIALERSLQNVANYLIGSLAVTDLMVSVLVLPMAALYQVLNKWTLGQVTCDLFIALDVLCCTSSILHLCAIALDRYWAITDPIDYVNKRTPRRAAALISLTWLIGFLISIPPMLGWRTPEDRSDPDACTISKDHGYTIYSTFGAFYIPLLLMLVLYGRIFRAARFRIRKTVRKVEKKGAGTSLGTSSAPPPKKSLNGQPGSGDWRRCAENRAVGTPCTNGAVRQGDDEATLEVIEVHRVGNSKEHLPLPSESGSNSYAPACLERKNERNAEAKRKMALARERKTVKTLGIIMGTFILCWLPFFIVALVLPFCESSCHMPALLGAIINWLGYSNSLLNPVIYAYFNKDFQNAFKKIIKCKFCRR
# Protocol: (§1) Animals: clean grade SD rats, female and male, 250-300 g, purchased from Nanjing QingLongshan animal breeding center.
# (§2) Radioligand: [^3H]-8-OH-DPAT, [^3H]-Ketanserin, purchased from PerkinElmer company; 5-HT and Methysergide, purchased from Sigma company.
# Preparation of 5-HT1A buffer solution: Tris-HCl buffer solution (0.05M, 1000 ml) is added with certain amount of ascorbic acid, pargyline and CaCl2, to give final concentrations of 0.1%(ascorbic acid), 10 um (pargyline) and 4 mM (CaCl2) separately.
# (§3) Preparation of radioligand: 50 μl mother liquor is diluted to 5 ml with anhydrous ethanol, and stocked for use.
# (§4) Preparation of non-labeling ligand: appropriate amounts of 5-HT and Methysergide are dissolved in ultrapure water to give solutions with final concentrations of 2*10^−5M respectively.
# (§5) Preparation of solutions of various test drugs: appropriate amount of each drug is first diluted to 1 ml with ultrapure water as stock solution. When needed, 10 μl of the stock solution is diluted to 1 ml to reach a level of 10^−5M.
# (§6) Rats are decapitated to get the brains. The target tissues (left and right cerebral cortex) are separated on ice, added with 10-fold volume (V/W) of ice-cold buffer, and homogenized with tissue Homogenizer for several seconds 3 times to form tissue homogenate. The tissue homogenate is centrifuged with low temperature superb centrifuge (12000 r/min) 3 times, with each for 20 minutes. The supernatant is discarded and the precipitate (membrane receptor) is stocked in −80° C. ultralow temperature freezer.
# (§7) The membrane receptor is added with certain volume of ice-cold buffer and homogenized to make membrane receptor solutions at certain concentrations.
# (§8) Various reaction solutions are added in the following sequences and ratios:
# (§9) Total binding tube: 100 μl membrane receptor+100 μl buffer+10 μl radioligand
# (§10) Non-specific tube: 100 μl membrane receptor+100 μl non-labeling ligand+10 μl radioligand
# (§11) Test compound tube: 100 μl membrane receptor+100 μl drug solution+10 μl radioligand
# (§12) Above tubes are put in 37° C. water bath immediately after finishing adding radioligand into each of them and then incubated for 25 min. After 25 min, the tubes are put in ice water to quench the reaction. Each tube is poured into suction filtration device to filter, and the filter membrane is washed with 5-10 ml ice-cold buffer twice. The filter membrane is dried in 85° C. oven, and then put into test tubes, and added with certain amount of scintillation liquid to soak overnight. Radioactivity is determined using liquid scintillation counter.
# (§13) Each compound is tested in duplicate, and the tests are carried out independently twice.
# [3] = target: T2, 5-HT2A receptor (Rattus norvegicus, UniProt P14842); experiment: In vitro competitive binding test to 5-HT2A receptor ([3H]-Ketanserin, rat cerebral cortex membranes); details: 10 μmol/L compound; hydrochloride salts; rat cerebral cortex membrane; unit (I %); read-out: 5-HT2A affinity [3H]-Ketanserin (inhibition rate of radioligand binding)
# T2 construct: The supernatant is discarded and the precipitate (membrane receptor) is stocked; from tissue; host or cells: SD rat cerebral cortex membranes
# Protocol: as §1, §2
# Preparation of 5-HT2A buffer solution: Tris (6.05 g) is dissolved in ultrapure water (1000 ml). PH is adjusted to 7.4 with HCl. Tris-HCl buffer solution (0.05M) is used.
# as §3, §4, §5, §6, §7, §8, §9, §10, §11, §12, §13
# [4] = target: hSERT (Homo sapiens, UniProt P31645); experiment: In vitro inhibition of serotonin reuptake ([3H]-5-HT) in cells stably expressing hSERT; details: for inhibition at 10 µM: read-out: Inhibition rates of SERT reuptake [3H]-5-HT
# Protocol: Positive control compound: fluoxetine.
# Sample treatment: about 1 mg of compound is weighted and added with relative amount of DMSO to prepare 10^−2M stock solution. Before use, the stock solution is diluted with HBSS buffer to relative concentrations. Each sample is dissolved in DMSO completely. The dilution is clear and without obvious cloudy and formation of precipitate after adding with buffer.
# (1) Cells which can stably express hSERT are seeded into 24-well plates respectively.
# (2) Experiments are started when the cell confluence reaches 80-90%.
# (3) Liquids in the plates are discarded, the plates are washed with PBS twice at room temperature.
# (5) Plates are incubated at 37° C. for 10 min after slight oscillation.
# (6) Then 20 μl radioisotope is added (cpm: about 20000).
# (7) Plates are incubated at 37° C. for 5 min after slight oscillation.
# (8) Liquids in the plates are discarded, the plates are washed with ice-cold PBS twice, all the liquids in the plates are removed away.
# (9) NaOH (2M, 100 μl) is added into each well to lyse the cells. All the lysates are combined and put on GF/C glass fiber filter paper.
# (10) The filter papers are dried and put in 0.5 ml centrifuge tube, 500 μl lipid soluble scintillation liquid are added. Radioactivity is determined by MicroBeta liquid scintillation counter. Each concentration is tested intriplicate, and tests are carried out independently twice.
# Test concentration is 10 μmol/L. The positive drug provided is set as control (10 μmol/L) in each experiment. The experimental processes are the same as the above process.
# [5] = test system: Salmonella typhimurium histidine auxotrophic mutants TA97, TA98, TA100 and TA102; experiment: Bacterial reverse mutation test (Ames test); details: −S9 and +S9, all dosages
# Protocol: Strains: Salmonella typhimurium histidine auxotrophic mutants TA97, TA98, TA100 and TA102.
# Results: the experiments include two parts of −S9 and +S9. In the test system without S9, TA98 5000 μg/dish has antibacterial activity, and in the test system with S9, TA97 5000 μg/dish has antibacterial activity. Other dosages have no antibacterial activity to any of the strains, and the growth background is excellent. […] Ames test is negative.
# [6] = Acute toxicity study, single drench to mice (LD50, Bliss method); details: mouse, in vivo, oral, hydrochloride
# Excerpt: Bliss method is used for statistics.
# [7] = test system: mice tail suspension test; experiment: Mice tail suspension test (immobility time); type: in vivo, KM mice; details: 40 mg/kg intragastric, 1 h post dose, last 4 min of 6 min, n=10, mean ± SD
# Protocol: Control drug: duloxetine hydrochloride, fluoxetine hydrochloride
# A few days before the experiment, mice with qualified body weight are selected and divided into groups. The experiments are carried out in 2 days. In D1, mice are put on bar of tail suspension instrument for 6 min, the immobility time of the last 4 min are recorded. […] Blank control group, positive control group and each test compound group are set.
# The mean values of immobility time for each group are calculated, the results are expressed as “mean±standard deviation”.
# T2 sequence (P14842 whole entry): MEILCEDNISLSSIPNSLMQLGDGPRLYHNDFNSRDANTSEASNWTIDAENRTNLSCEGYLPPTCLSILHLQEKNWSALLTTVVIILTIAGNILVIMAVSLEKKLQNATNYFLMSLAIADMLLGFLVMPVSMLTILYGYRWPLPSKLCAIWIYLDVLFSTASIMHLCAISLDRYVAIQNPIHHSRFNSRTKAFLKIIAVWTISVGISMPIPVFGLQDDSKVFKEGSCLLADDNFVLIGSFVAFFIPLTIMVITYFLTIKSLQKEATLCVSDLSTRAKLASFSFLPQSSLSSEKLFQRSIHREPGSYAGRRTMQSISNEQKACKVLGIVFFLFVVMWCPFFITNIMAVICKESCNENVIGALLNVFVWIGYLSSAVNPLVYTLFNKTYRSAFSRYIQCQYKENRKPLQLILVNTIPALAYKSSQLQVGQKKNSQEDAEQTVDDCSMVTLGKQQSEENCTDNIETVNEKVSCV
# hSERT, sequence (P31645 whole entry): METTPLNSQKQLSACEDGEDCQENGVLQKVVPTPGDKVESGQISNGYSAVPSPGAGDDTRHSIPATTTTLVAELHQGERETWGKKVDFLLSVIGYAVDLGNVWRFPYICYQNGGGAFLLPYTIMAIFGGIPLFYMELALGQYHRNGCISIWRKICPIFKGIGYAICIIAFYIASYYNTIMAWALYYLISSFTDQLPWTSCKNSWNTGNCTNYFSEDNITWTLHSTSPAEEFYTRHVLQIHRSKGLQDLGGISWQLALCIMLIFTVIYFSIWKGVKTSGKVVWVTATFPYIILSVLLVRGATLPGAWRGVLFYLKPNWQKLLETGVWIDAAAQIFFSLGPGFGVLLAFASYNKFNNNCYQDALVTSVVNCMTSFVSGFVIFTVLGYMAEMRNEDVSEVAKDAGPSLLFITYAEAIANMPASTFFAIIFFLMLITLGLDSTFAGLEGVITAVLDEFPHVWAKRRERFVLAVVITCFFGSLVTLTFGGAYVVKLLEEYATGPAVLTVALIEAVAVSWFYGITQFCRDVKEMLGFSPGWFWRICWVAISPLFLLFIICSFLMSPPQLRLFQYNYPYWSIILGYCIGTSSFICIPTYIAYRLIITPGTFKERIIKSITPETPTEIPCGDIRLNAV
smiles,measurement,setting,value
"NCC1(CC(=O)O)CCCCC1 [Gabapentin, gabapentin, reference compound]",phase I times (leg-raising times),[1],11.60 ± 6.75 time
same,phase II times (leg-raising times),[1],74.7 ± 39.45 time
"COc1ccccc1N1CCN(CCN(C)c2cccc(C#N)c2)CC1 [III-1, 3-((2-(4-(2-methoxyphenyl)piperazin-1-yl)ethyl)methylamino)benzonitrile]",inhibition at 10 µM,[2],154%
same,inhibition at 10 µM,[3],98.9%
same,inhibition at 10 µM,[4],97.3%
"CN(CCN1CCN(c2cccc(C(F)(F)F)c2)CC1)c1cccc(C#N)c1 [III-2, 3-(methyl(2-(4-(3-trifluoromethylphenyl)piperazin-1-yl)ethyl)amino)benzonitrile]",inhibition at 10 µM,[2],119%
same,inhibition at 10 µM,[3],131%
same,inhibition at 10 µM,[4],97.8%
"CN(CCN1CCN(c2cccc(Cl)c2)CC1)c1cccc(C#N)c1 [III-3, 3-((2-(4-(3-chlorophenyl)piperazin-1-yl)ethyl)methylamino)benzonitrile]",inhibition at 10 µM,[2],155%
same,inhibition at 10 µM,[3],107%
same,inhibition at 10 µM,[4],98.3%
"CN(CCN1CCN(c2cccc(Cl)c2Cl)CC1)c1cccc(C#N)c1 [III-4, 3-((2-(4-(2,3-dichlorophenyl)piperazin-1-yl)ethyl)methylamino)benzonitrile]",inhibition at 10 µM,[2],126%
same,inhibition at 10 µM,[3],104%
same,inhibition at 10 µM,[4],93.4%
"Cc1cccc(N2CCN(CCN(C)c3cccc(C#N)c3)CC2)c1C [III-5, 3-((2-(4-(2,3-dimethylphenyl)piperazin-1-yl)ethyl)methylamino)benzonitrile]",inhibition at 10 µM,[2],121%
same,inhibition at 10 µM,[3],134%
same,inhibition at 10 µM,[4],99.7%
"COc1c(Cl)ncnc1N1CCN(CCN(C)c2cccc(C#N)c2)CC1 [III-6, 3-((2-(4-(6-chloro-5-methoxylpyrimidin-1-yl)piperazin-1-yl)ethyl)methylamino)benzonitrile]",inhibition at 10 µM,[2],91.6%
same,inhibition at 10 µM,[3],84.5%
same,inhibition at 10 µM,[4],98.3%
COc1cncnc1N1CCN(CCN(C)c2cccc(C#N)c2)CC1 [III-7],inhibition at 10 µM,[2],83.2%
same,inhibition at 10 µM,[3],101%
same,inhibition at 10 µM,[4],81.7%
"CN(CCCN1CCN(c2cccc(C(F)(F)F)c2)CC1)c1cccc(C#N)c1 [III-8, 3-(methyl(3-(4-(3-trifluoromethylphenyl)piperazin-1-yl)propyl)amino)benzonitrile]",inhibition at 10 µM,[2],108%
same,inhibition at 10 µM,[3],111%
same,Ames test (colony reverse mutations),[5],negative
same,IC50,[4],246 ± 94 nM
same,inhibition effect to 5-HT reuptake compared with fluoxetine,[4],comparable to that of fluoxetine
same,inhibition at 10 µM,[4],98.3%
same,LD50,[6],1800 mg/kg
"COc1ccccc1N1CCN(CCCN(C)c2cccc(C#N)c2)CC1 [III-9, 3-((3-(4-(2-methoxyphenyl)piperazin-1-yl)propyl)methylamino)benzonitrile]",inhibition at 10 µM,[2],125%
same,inhibition at 10 µM,[3],154%
same,inhibition at 10 µM,[4],104%
"Cc1cccc(N2CCN(CCCN(C)c3cccc(C#N)c3)CC2)c1C [III-11, 3-((3-(4-(2,3-dimethylphenyl)piperazin-1-yl)propyl)methylamino)benzonitrile]",inhibition at 10 µM,[2],102%
same,inhibition at 10 µM,[3],145%
same,inhibition at 10 µM,[4],96.6%
COc1cncnc1N1CCN(CCCN(C)c2cccc(C#N)c2)CC1 [III-12],inhibition at 10 µM,[2],114%
same,inhibition at 10 µM,[3],132%
same,inhibition at 10 µM,[4],94.4%
"CN(CCCN1CCN(c2cccc(Cl)c2Cl)CC1)c1cccc(C#N)c1 [III-13, 3-((3-(4-(2,3-dichlorophenyl)piperazin-1-yl)propyl)methylamino)benzonitrile]",inhibition at 10 µM,[2],119%
same,inhibition at 10 µM,[3],149%
same,inhibition at 10 µM,[4],86.9%
"CCN(CCCN1CCN(c2ccccc2OC)CC1)c1cccc(C#N)c1 [III-14, 3-((3-(4-(2-methoxyphenyl)piperazin-1-yl)propyl)ethylamino)benzonitrile]",inhibition at 10 µM,[2],112%
same,inhibition at 10 µM,[3],135%
same,inhibition at 10 µM,[4],98.2%
"CNCC[C@H](Oc1cccc2ccccc12)c1cccs1 [dutoxetine, duloxetine hydrochloride]",Immobility time,[7]; hydrochloride,28.2 ± 27.3 S
same,Immobility time,"[7]; listed as dutoxetine hydrochloride, hydrochloride",significantly decreased immobility time
CNCCC(Oc1ccc(C(F)(F)F)cc1)c1ccccc1 (stereo not shown) [fluoxetine],Immobility time,[7],69.9 ± 27.4 S
same,Immobility time,[7]; listed as fluoxetine hydrochloride,significantly decreased immobility time
